Measured values reported in patent US5891912A, “1,3-dialkylurea derivatives having a hydroxyl group” (Santen Pharmaceutical Co., Ltd., priority 1994, dated 1999).

Molecular target: T1, endopeptidase 24.11 (Rattus norvegicus, UniProt P07861)
T1 construct: was prepared by extracting from a rat kidney; from tissue; host or cells: Wistar rat kidney, homogenate pellet after ultracentrifugation (crude membrane preparation)
T1 sequence (P07861 1-750): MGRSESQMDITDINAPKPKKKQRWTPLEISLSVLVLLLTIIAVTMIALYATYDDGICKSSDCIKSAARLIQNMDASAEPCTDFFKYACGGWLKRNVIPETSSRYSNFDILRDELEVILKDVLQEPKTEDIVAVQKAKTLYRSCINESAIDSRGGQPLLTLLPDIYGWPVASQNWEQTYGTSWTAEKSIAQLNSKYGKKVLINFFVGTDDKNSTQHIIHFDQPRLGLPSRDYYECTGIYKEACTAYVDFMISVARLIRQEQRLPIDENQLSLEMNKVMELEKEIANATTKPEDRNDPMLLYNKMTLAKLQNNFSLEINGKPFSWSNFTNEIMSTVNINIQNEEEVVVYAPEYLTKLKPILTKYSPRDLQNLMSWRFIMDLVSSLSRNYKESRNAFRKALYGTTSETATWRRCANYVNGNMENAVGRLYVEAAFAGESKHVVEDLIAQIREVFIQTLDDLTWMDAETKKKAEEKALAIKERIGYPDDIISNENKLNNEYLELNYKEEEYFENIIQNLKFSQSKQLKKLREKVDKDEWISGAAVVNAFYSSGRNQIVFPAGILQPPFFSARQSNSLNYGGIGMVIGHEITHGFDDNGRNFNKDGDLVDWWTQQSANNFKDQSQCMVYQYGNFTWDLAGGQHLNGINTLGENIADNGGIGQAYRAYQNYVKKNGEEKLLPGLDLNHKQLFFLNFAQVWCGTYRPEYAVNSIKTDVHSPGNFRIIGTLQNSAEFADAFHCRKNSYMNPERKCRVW
Assay: inhibition of endopeptidase 24.11 activity (cleavage of N-dansyl-D-alanyl-glycyl-p-nitrophenylalanyl-glycine, DAGNPG; rat kidney enzyme preparation)
Assay type: biochemical, Wistar rat
Details: DAGNPG 50 μM, pH 7.4, 37° C., 30 minutes, read-out: IC50 (concentration required to inhibit endopeptidase 24.11 by 50%)
Source text: As a method for measuring an endopeptidase 24.11 activity, Florentin et al. had reported a method for measuring the enzyme activity by a degree of cleavage of a peptide bond between glycine and p-nitrophenylalanine using N-dansyl-D-alanyl-glycyl-p-nitrophenylalanyl-glycine (DAGNPG) as a substrate (Anal. Biochem., 141, 62-69 (1984)). An effect of the compounds of the invention on endopeptidase 24.11 was examined according to the method described in the literature.
An enzyme preparation used in this pharmacological test was prepared by extracting from a rat kidney by the following method according to the method of Malfloy et al. (J. Biol. Chem., 259, 14365-14370 (1984)).
A kidney was excised from a Wistar rat. The kidney was homogenized in Tris-hydrochloric acid buffer (5 mM, pH 7.4, containing 125 mM D-mannitol and 12 mM magnesium chloride). The homogenate was centrifuged at low speed (1,000×g) to give a supernatant. The supernatant was ultracentrifuged ([…]) for 120 minutes. The resulting pellet was suspended in Tris-hydrochloric acid buffer (2.5 mM, pH 7.4, containing 62.5 mM D-mannitol and 6 mM magnesium chloride). The suspension was centrifuged at low speed and then ultracentrifuged again. The resulting pellet was suspended in HEPES buffer (5 mM, pH 7.4) to give the enzyme preparation.
In order to examine the effect of the compounds of the invention on the enzyme preparation, reactions were performed under the following condition using mixed solutions consisting of the composition shown in Table 1. […]
______________________________________
Enzyme preparation 0.3-0.5 μg protein
The above-mentioned solution (150 μl) was incubated at 37° C. for 30 minutes and then boiled at 100° C. for 5 minutes. To the solution was added 1.35 ml of Tris-hydrochloric acid buffer (50 mM, pH 7.4). The mixture was centrifuged at moderate speed (5,000×g) for 5 minutes to give a supernatant. Fluorescence intensity of the supernatant (excitation at 342 nm of wave length and emission at 562 nm) was measured.
The degree of the inhibitory effect of each test compound on the enzyme preparation was expressed by the inhibition rate calculated by the following equation. [formula]
A: fluorescence intensity of the sample in the absence of the test compound
B: fluorescence intensity of the sample in the presence of the test compound

Compound	IC50
CC(C)CN(CC(O)C(=O)O)C(=O)N[C@@H](Cc1ccccc1)C(=O)O (mixture of isomers) [Compound No. 2-1, (2S)-2-[3-[(2RS)-2-Carboxy-2-hydroxyethyl]-3-isobutylureido]-3-phenylpropionic acid]	5.4 nM
CC(C)CN(CC(O)C(=O)O)C(=O)N[C@@H](Cc1ccc(-c2ccccc2)cc1)C(=O)O (mixture of isomers) [Compound No. 3-1, (2S)-3-(4-Biphenylyl)-2-[3-[(2RS)-2-carboxy-2-hydroxyethyl]-3-isobutylureido]propionic acid]	1.1 nM
CC(C)CN(CC(O)C(=O)O)C(=O)N[C@@H](Cc1ccc(-c2ccc(F)cc2)cc1)C(=O)O (mixture of isomers) [Compound No. 3-2, (2S)-2-[3-[(2RS)-2-Carboxy-2-hydroxyethyl]-3-isobutylureido]-3-[4-(4-fluorophenyl)phenyl]propionic acid]	3.1 nM
CC(C)CN(CC(O)C(=O)O)C(=O)N[C@H](C(=O)O)c1ccccc1 (mixture of isomers) [Compound No. 3-4, (2RS)-3-[3-[(S)-α-Carboxybenzyl]-1-isobutylureido]-2-hydroxypropionicacid]	65 nM
CC(C)CN(C[C@@H](O)C(=O)O)C(=O)N[C@@H](Cc1ccc(-c2ccccc2)cc1)C(=O)O [Compound No. 8-3, (2S)-3-(4-Biphenylyl)-2-[3-[(2R)-2-carboxy-2-hydroxyethyl]-3-isobutylureido]propionic acid]	2.1 nM

These reach a lower IC50. Values come first.

IC50	Compound
0.32 nM	CC(C)CN(C[C@H](O)C(=O)NO)C(=O)N[C@@H](Cc1ccccc1)C(=O)O [Compound No. 8-1, (2S)-2-[3-[(2S)-2-Hydroxy-2-hydroxycarbamoylethyl]-3-isobutylureido]-3-phenylpropionic acid]
0.95 nM	CC(C)CN(C[C@H](O)C(=O)O)C(=O)N[C@@H](Cc1ccc(-c2ccccc2)cc1)C(=O)O [Compound No. 8-2, (2S)-3-(4-Biphenylyl)-2-[3-[(2S)-2-carboxy-2-hydroxyethyl]-3-isobutylureido]propionic acid]
0.16 nM	CC(C)CN(C[C@H](O)C(=O)NO)C(=O)N[C@@H](Cc1ccc(-c2ccccc2)cc1)C(=O)O [Compound No. 8-9, (2S)-3-(4-Biphenylyl)-2-[3-[(2S)-2-hydroxy-2-hydroxycarbamoylethyl]-3-isobutylureido]propionic acid]
0.27 nM	CC(C)CN(C[C@H](O)C(=O)NO)C(=O)N[C@@H](Cc1ccc2ccccc2c1)C(=O)O [Compound No. 9-1, (2S)-2-[3-[(2S)-2-Hydroxy-2-hydroxycarbamoylethyl]-3-isobutylureido]-3-(2-naphthyl)propionic acid]
